“And” between values parts separate entries of the source, which are not always exact repeats. Identical values can stand only once. Counter-ions that a name gives are not always drawn.

For data set [1], the target named is T1, ER in rat uterine cytosol (ERα) (Rattus norvegicus, UniProt P06211).
T1 construct: The uterus was removed and homogenized in ice-cold TEGDMo buffer; from tissue; host or cells: uterine cytosol of castrated female Sprague Dawley rats
T1 sequence (P06211 1-600): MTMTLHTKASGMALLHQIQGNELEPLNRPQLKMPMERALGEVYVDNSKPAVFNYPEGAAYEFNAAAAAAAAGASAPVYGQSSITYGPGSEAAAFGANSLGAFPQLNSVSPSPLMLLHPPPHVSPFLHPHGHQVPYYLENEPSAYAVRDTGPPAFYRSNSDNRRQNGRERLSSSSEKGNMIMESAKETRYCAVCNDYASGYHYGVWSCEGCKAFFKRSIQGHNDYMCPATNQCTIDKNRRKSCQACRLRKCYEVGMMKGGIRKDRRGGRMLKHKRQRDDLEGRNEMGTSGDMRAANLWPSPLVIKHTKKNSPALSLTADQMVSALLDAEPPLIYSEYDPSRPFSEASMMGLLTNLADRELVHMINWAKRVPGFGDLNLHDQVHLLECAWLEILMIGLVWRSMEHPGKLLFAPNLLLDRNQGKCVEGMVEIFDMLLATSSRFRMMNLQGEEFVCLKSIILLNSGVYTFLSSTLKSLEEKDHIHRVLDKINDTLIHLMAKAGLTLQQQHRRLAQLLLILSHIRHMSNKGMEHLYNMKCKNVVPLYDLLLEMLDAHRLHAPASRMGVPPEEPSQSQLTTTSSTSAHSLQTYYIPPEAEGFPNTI
Nature of the data set: Competitive binding to the ER in rat uterine cytosol (RBA vs [3H]E2). The note with it: for ER RBA (relative binding affinity): rat uterine estrogen receptor assay, E2 = 100, ± S.D.; for RBA / binding to the ER: uterine cytosol (ERα); for RBA: relative to E2. Here is the method:
Competitive Binding to the Estrogen Receptor ERα and ERβ. […] The ER in uterine cytosol is ERα the classical form of the ER.^38 Female Sprague Dawley rats were castrated and sacrificed 24 h later. The uterus was removed and homogenized in ice-cold TEGDMo buffer (10 mM Tris, 1.5 mM Na2-EDTA, 10% (v/v) glycerol, 1.0 mM dithiothreitol, 25 mM sodium molybdate, pH 7.4 at 4° C.). and centrifuged at 105,000 g for 45 min at 4° C. The supernatant (cytosol) was frozen on dry ice and stored at −80° C. until assay. […] Incubations were carried out on ice overnight and bound radioactivity was separated from free by adsorption with dextran coated charcoal and quantified by counting.^26 Relative Binding Affinity (RBA) was determined by analysis of the displacement curves by the curve-fitting program Prism (Graph-Pad Software inc., San Diego, Calif.). The results shown in Table 1. below, are from at least 3 separate experiments performed in duplicate.

In the next data set the test system is human ERβ and ERα. Nature of the data set: Competitive binding to human ERβ and ERα expressed in Escherichia coli lysates (ratio of RBAs). The note with it: RBAs (E2 = 100) in E. coli lysates expressing human ERβ and ERα separately.
Data set [2] relates to alkaline phosphatase (AlkP) induction in Ishikawa cells. Kind of data set: Estrogenic potency in Ishikawa cells: induction of AlkP. It is filed as cell-based, human. The note with it: for Ishikawa Cell AlkP RSA (relative stimulatory activity): induction of AlkP, E2 = 100, ± S.D. On the procedure:
Estrogenic Potency in Ishikawa Cells. The estrogenic potency of the E2-analogs was determined in a estrogen bioassay, the induction of AlkP in human endometrial adenocarcinoma cells (Ishikawa) grown in 96-well microtiter plates as we have previously described.^28 In short, the cells are grown in phenol red free medium with estrogen depleted (charcoal stripped) bovine serum in the presence or absence of varying amounts of the steroids. […] After 3 days, the cells are washed, frozen and thawed, and then incubated with 5 mM p-nitrophenyl phosphate, a chromogenic substrate for the AlkP enzyme, at pH 9.8. To ensure linear enzymatic analysis, the plates are monitored kinetically for the for the production of p-nitrophenol at 405 nm. The relative stimulatory activity is determined by analysis of the curve fitting program Prism. Each compound was analyzed in at least 3 separate experiments performed in duplicate.

The subject of data set [3] is esterase(s) in rat hepatic microsomes. Kind of data set: Esterase assay with rat hepatic microsomes. It is filed as in vitro ADME. The note with it: rat hepatic microsomes, E16-1,2 = 100; ± S.D. Here is the method: Esterase. Esterase activity was measured in rat hepatic microsomes essentially using the conditions described.^39 Liver obtained from Sprague-Dawley rats was washed with phosphate buffered saline and homogenized in 3 volumes of cold 0.25 M sucrose and centrifuged at 700 g for 10 min and then at 10,000 g for 20 min. The resulting supernatant was centrifuged at 105,000 g for 60 min. The pellet was suspended in 0.1 M phosphate buffer pH 7.4 and washed by centrifugation at 105,000 g for 60 min. The washed pellet was suspended in 0.1 M Tris-HCl pH 8.0 at a concentration of ˜13 mg protein/ml and frozen at −80° C. For assay, the pellets were thawed and diluted with the same buffer. The incubation mixture consisted of the microsomal enzyme preparation, 0.28 mg protein/ml, E2-16α-alkyl esters, 50 μM, added in 10 μL of ethanol, all in a final volume of 1 mL of Tris buffer pH 8.0. Since the rates of reaction are widely different for the various esters, the incubation times were varied accordingly to obtain linear kinetics. At several appropriate time points, 100 μL aliquots were withdrawn and the reaction was quenched with 33 μL CH3CN, followed by a 33 μL of a solution of THF containing 1 […] of the internal standard, 6-ketoestradiol. The quenched aliquot was centrifuged for several minutes on bench-top centrifuge and 80 μl of the supernatant was analyzed for the esterase-hydrolysis product (the corresponding E2-16α-carboxylic acid: E16-1,0 8; E16-2,0 23; E16-3,0 35) by reversed phase HPLC with system H-10 for E2-16-1 and E2-16-2 esters, and with system H-15 for E2-16-3 esters. The E2-16α-carboxyl products, (Rt for E16-1,0 8=7 min and for E16-2,0 23=9 min, E16-3,0 35=6.5 min) and the internal standard, 6-ketoestradiol (Rt 7.5 min in system H-10, and 5 min in system H-15) were quantified at 280 nm on the HPLC UV detector. The UV absorbance was converted to moles of product by comparison to standard curves and corrected for recovery of the internal standard, 6-ketoestradiol. The velocity of the reaction for each ester, in nmol product/min/ml/ was then normalized to the ester, E16-1,2 10 and is shown in Table 1 as relative hydrolytic activity (RHA). The enzymatic velocity for the hydrolysis of E16-1,2 10 was 0.9±0.2 (S.D.) nmol product/min/ml over the various experiments. Since all of the esters could not be tested simultaneously, in each case we compared the rate of hydrolysis of the test compound to that of E16-1,2 10 run concurrently. All compounds were tested in triplicate in 3 separate experiments.

Turning to `C[C@]12CC[C@@H]3c4ccc(O)cc4CC[C@H]3[C@@H]1C[C@@H](C(=O)OCC(F)F)[C@@H]2O` [E16-1,2F2, 2′,2′-Difluoroethyl (3,17β-dihydroxyestra-1,3,5(10)-trien-16α-yl) formate], in data set [1], the “ER RBA (relative binding affinity)” value worked out at 10 ± 3 and the RBA amounted to 10%. Also, the “ERα/ERβ (ratio of the RBAs)” value with human ERβ and ERα was 1,800. Moreover, in data set [2], the “Ishikawa Cell AlkP RSA (relative stimulatory activity)” value is listed as 4 ± 1. In data set [3], the “Esterase RHA (relative hydrolytic activity)” value is on record as 2,350 ± 275.
Regarding `C[C@]12CC[C@@H]3c4ccc(O)cc4CC[C@H]3[C@@H]1C[C@@H](CCC(=O)O)[C@@H]2O` [E16-3,0, 3-(3,17β-dihydroxyestra-1,3,5(10)-trien-16α-yl)propanioc acid], in data set [1], the “ER RBA (relative binding affinity)” value is 0.1 ± 0.1; the “binding to the ER” value is “None of the parent carboxylic acid analogs, E16-1,0, E16-2,0 and E16-3,0 showed significant binding”. Moreover, in data set [2], the “Ishikawa Cell AlkP RSA (relative stimulatory activity)” value was found to be 0.
Consider `C[C@]12CC[C@@H]3c4ccc(O)cc4CC[C@H]3[C@@H]1C[C@@H](C(=O)OCC(F)(F)F)[C@@H]2O` [E16-1,2F3, 2′,2′,2′-Trifluoroethyl (3,17β-dihydroxyestra-1,3,5(10)-trien-16α-yl) formate], for which, in data set [1], the “ER RBA (relative binding affinity)” value is reported as 7 ± 1 and the RBA was 7%. The “Ishikawa Cell AlkP RSA (relative stimulatory activity)” value in data set [2] is recorded as 3 ± 1. Also, the “Esterase RHA (relative hydrolytic activity)” value in data set [3] is on record as 8,200 ± 1,800.
Take `COC(=O)C[C@@H]1C[C@H]2[C@@H]3CCc4cc(O)ccc4[C@H]3CC[C@]2(C)[C@H]1O` [E16-2,1, Methyl 3,17β-dihydroxyestra-1,3,5(10)-trien-16α-yl acetate]: in data set [1], the “ER RBA (relative binding affinity)” value was determined as 5 ± 2 and the RBA is listed as 5%. In data set [2], the “Ishikawa Cell AlkP RSA (relative stimulatory activity)” value was 0.5 ± 0.1. Further, the “Esterase RHA (relative hydrolytic activity)” value in data set [3] is on record as 340 ± 30.
For the compound `C[C@]12CC[C@@H]3c4ccc(O)cc4CC[C@H]3[C@@H]1C[C@@H](C(=O)O)[C@@H]2O` [E16-1,0, 3,17β-dihydroxyestra-1,3,5(10)-trien-16α-carboxylic acid], in data set [1], the “ER RBA (relative binding affinity)” value was determined as 0; the “binding to the ER” value is “None of the parent carboxylic acid analogs, E16-1,0, E16-2,0 and E16-3,0 showed significant binding”. Also, in data set [2], the “Ishikawa Cell AlkP RSA (relative stimulatory activity)” value came out at 0.
`CC(C)OC(=O)[C@@H]1C[C@H]2[C@@H]3CCc4cc(O)ccc4[C@H]3CC[C@]2(C)[C@H]1O` [E16-1,3i, Isopropyl (3,17β-dihydroxyestra-1,3,5(10)-trien-16α-yl) formate]: in data set [1], the “ER RBA (relative binding affinity)” value was 7 ± 4 and the RBA is 7%. The “Ishikawa Cell AlkP RSA (relative stimulatory activity)” value in data set [2] turned out to be 0.1 ± 0.06. In addition, the “Esterase RHA (relative hydrolytic activity)” value in data set [3] was 140 and 140 ± 10.
In the case of `CCCCOC(=O)[C@@H]1C[C@H]2[C@@H]3CCc4cc(O)ccc4[C@H]3CC[C@]2(C)[C@H]1O` [E16-1,4, n-Butyl (3,17β-dihydroxyestra-1,3,5(10)-trien-16α-yl) formate], in data set [1], the “ER RBA (relative binding affinity)” value stood at 28 ± 17 and the RBA came out at 28%. Also, the “Ishikawa Cell AlkP RSA (relative stimulatory activity)” value in data set [2] was determined as 1 ± 0. For the same compound, the “Esterase RHA (relative hydrolytic activity)” value in data set [3] is listed as 350 ± 50.
Regarding `C[C@]12CC[C@@H]3c4ccc(O)cc4CC[C@H]3[C@@H]1C[C@@H](CC(=O)O)[C@@H]2O` [E16-2,0, 3,17β-Dihydroxyestra-1,3,5(10)-trien-16α-yl acetic acid], in data set [1], the “ER RBA (relative binding affinity)” value is listed as 0; the “binding to the ER” value is “None of the parent carboxylic acid analogs, E16-1,0, E16-2,0 and E16-3,0 showed significant binding”. In data set [2], the “Ishikawa Cell AlkP RSA (relative stimulatory activity)” value was found to be 0.
Consider `COC(=O)CC[C@@H]1C[C@H]2[C@@H]3CCc4cc(O)ccc4[C@H]3CC[C@]2(C)[C@H]1O` [E16-3,1, Methyl 3-(3,17β-dihydroxyestra-1,3,5(10)-trien-16α-yl)propanoate], for which, in data set [1], the “ER RBA (relative binding affinity)” value came to 1 ± 1 and the RBA is on record as 1%. For the same compound, in data set [2], the “Ishikawa Cell AlkP RSA (relative stimulatory activity)” value is reported as 0. Further, the “Esterase RHA (relative hydrolytic activity)” value in data set [3] amounted to 910 ± 100.
Regarding `CCCOC(=O)[C@@H]1C[C@H]2[C@@H]3CCc4cc(O)ccc4[C@H]3CC[C@]2(C)[C@H]1O` [E16-1,3, Propyl (3,17β-dihydroxyestra-1,3,5(10)-trien-16α-yl) formate], in data set [1], the “ER RBA (relative binding affinity)” value is 34 ± 9. In data set [2], the “Ishikawa Cell AlkP RSA (relative stimulatory activity)” value is 2 ± 0. The “Esterase RHA (relative hydrolytic activity)” value in data set [3] is 230 and 230 ± 50.
Take `CC(C)(C)COC(=O)[C@@H]1C[C@H]2[C@@H]3CCc4cc(O)ccc4[C@H]3CC[C@]2(C)[C@H]1O` [E16-1,5neo]: in data set [1], the “ER RBA (relative binding affinity)” value was 14 ± 3 and the RBA is on record as 7%. The “Ishikawa Cell AlkP RSA (relative stimulatory activity)” value in data set [2] is 1 ± 0.6. Also, the “Esterase RHA (relative hydrolytic activity)” value in data set [3] is 50 and 50 ± 5.
With `CCOC(=O)C[C@@H]1C[C@H]2[C@@H]3CCc4cc(O)ccc4[C@H]3CC[C@]2(C)[C@H]1O` [E16-2,2, Ethyl (3,17β-dihydroxyestra-1,3,5(10)-trien-16α-yl) acetate], in data set [1], the “ER RBA (relative binding affinity)” value came to 5 ± 1 and the RBA is reported as 5%. The “Ishikawa Cell AlkP RSA (relative stimulatory activity)” value in data set [2] came out at 0.3 ± 0.1. For the same compound, the “Esterase RHA (relative hydrolytic activity)” value in data set [3] was 700 ± 120.
In the case of `C[C@]12CC[C@@H]3c4ccc(O)cc4CC[C@H]3[C@@H]1CCC2=O` [Compound E1, estrone, reference compound], in data set [2] (Ishikawa AlkP), the “RSA (estrogenic potency compared to E2)” value is recorded as 7%. The “Ishikawa Cell AlkP RSA (relative stimulatory activity)” value in data set [2] came to 7 ± 2.

The values above are taken from patent publication US6476012B2, “Estradiol-16α-carboxylic acid esters as locally active estrogens” (Yale University, priority 2001, dated 2002).
